Source: patent US20200172927A1, “REP[…] […] FOR TREATMENT OF NEURODEGENERATION” (The Trustees of Columbia University in the City of New York, priority 2017, published 2020)

System: HIF2a and GLUT1
Assay: Immunoblot of retinas from B6 mice orally fed VH298 for 3 days
Format: in vivo
Details: 6-week old B6 mice, oral, VH298 in oil 10, 20, or 50 mg/kg, retinas collected 4 hours after last feeding, vs oil only control
Protocol: 6-week old B6 mice were orally fed for 3 days with VH298 in oil (10, 20, or 50 mg/kg) or oil only for the control group. Each group contained 3 mice. 4 hours after the last feeding, mice retinas were collected and processed immediately for immunoblot. Protein levels of HIF2a, and Glut1 were shown. B-actin was used as loading control.
6-week old B6 mice were orally fed for 3 days with VH298 in oil (10, 20, or 50 mg/kg) or oil only for the control group. Each group contained 3 mice. 4 hours after the last feeding, mice retinas were collected and processed immediately for immunoblot.

Structure (SMILES): Cc1ncsc1-c1ccc(CNC(=O)[C@@H]2C[C@@H](O)CN2C(=O)[C@@H](NC(=O)C2(C#N)CC2)C(C)(C)C)cc1 [VH298, (2S,4R)-1-((S)-2-(1-cyanocyclopropanecarboxamido)-3,3-dimethylbutanoyl)-4-hydroxy-N-(4-(4-methylthiazol-5-yl)benzyl)pyrrolidine-2-carboxamide]
- Protein level of GLUT1 in retina (immunoblot): dose-dependent increase
- Protein level of HIF2a in retina (immunoblot): dose-dependent increase
